# Results from patent publication US9868695B2 (priority 2014, dated 2018).
# Where two headings read alike, the source gives them in different places.
# What was measured:
# Ehrlich solid tumor = experiment: In vivo activity in Ehrlich solid tumor model; design: species or system swiss mice; settings: for % Tumor Growth Inhibition: day 13 vs saline control; for Mortality: dead/group size
# Description: Ehrlich ascites carcinoma (EAC) cells were collected from the peritoneal cavity of the swiss mice (animal house of IIIM registered eith CPCSEA; registration no. 67/99/CPCSEA) weighing 18-23 gm, harbouring 8-10 days old ascitic tumor. 1×10^7 EAC cells were injected intramuscularly in the right thigh of 38 swiss male mice selected for the experiment on day 0. The next day, animals were randomized and divided into five groups. Four treatment groups contained 7 animals each and one control group contained 10 animals. Treatment was given as follows:
# Group I: 1 (0.75 mg/kg, i/p) from day 1-9.
# Group II: 1g (1 mg/kg, i/p) from day 1-9.
# The third treatment group was treated with 5-fluorouracil (22 mg/kg, i/p) from day 1-9 and it served as positive control. The control group was similarly administered normal saline (0.2 ml, i/p) from day 1-9. On day 9 & 13, tumor bearing thigh of each animal was shaved and longest and shortest diameters of the tumor were measured with the help of vernier caliper. Tumor weight of each animal was calculated using the following formula.
# The percent tumor growth inhibition was calculated on day 13 by comparing the average values of treated groups with that of control group. Tumor growth in saline treated control animals was taken to be 100%.
# P-gp = P-gp induction assay, rhodamine123 (Rh123) cell exclusion method in LS-180 cells; settings: for % intracellular accumulation of Rh123 in LS180 cells: compound 100 nM, decrease indicates P-gp induction; for % intracellular accumulation of Rh123 in LS180 cells / EC50: 48 h; for EC50: read-out: EC50, induction of P-gp, P-gp overexpressing LS-180 cells
# Description: All synthesized compounds were screened for their ability to induce P-gp by using rhodamine123 (Rh123) cell exclusion method. In this method, the P-gp function was evaluated in terms of rhodamine 123 (Rh123) accumulation and efflux. Briefly, the protocol used is as follows: Colorectal LS-180 cells (ECACC type, purchased from Sigma, Cat. no. 87021202, cell passage no. 52) were seeded at a density of 2×10^4 per well of 96 well plate and were allowed to grow for next 24 h. Cells were further incubated with the test compounds, and were diluted to a final concentration of 100 nM and rifampicin (standard) to a final concentration of 10 μM in complete media for 48 h. The final concentration of DMSO was kept at 0.1%. Drugs were removed and cells were incubated with HANKS buffer for 40 minutes before further incubation with HANKS buffer (containing 10 μM of Rh123 as a P-gp substrate) for 90 minutes. At the end of Rh123 treatment cells were washed four times with cold PBS followed by cell lysis for 1 h by using 200 μl of lysis buffer (0.1% Triton X-100 and 0.2 N NaOH). A total of 100 μl of lysate was used for reading fluorescence of Rh123 at 485 nm/529 nm. Samples were normalized by dividing fluorescence of each sample with total protein present in the lysate. For EC50 determination, different concentrations of compound were used to treat LS180 cells for 48 h. EC50 was determined by plotting fluorescence of Rh123 against concentration of compound.
# [1] = test system: microtubules in HCT-116 cells; experiment: Effect of compounds on microtubules, confocal microscopy; type: cell-based, Human; settings: 100 nM, 24 h, anti-α-tubulin staining, compared to control
# Description: For detection of tubulins, HCT-116 cells (1×10^5 cells/well) were seeded on to 18 mm square cover slips in six well plates in complete medium. […] After the treatment period, cells were fixed in 4% paraformaldehyde for 10 min at room temperature and permeabilized using 0.5% Triton-X in PBS for 5 min. The cells were blocked with 10% goat serum for 20 min at room temperature. Microtubules were detected with a monoclonal α-tubulin antibody (Sigma, Catalogue number: T9026) diluted 1:100 in 0.1% Triton X-100 in PBS for 1 h at room temperature and Alexa Fluor 488 conjugated secondary antibody (Invitrogen) diluted 1:500 in PBS for 1 h at room temperature. Cells were then washed three times in PBS and stained with 4′,6-diamidino-2-phenylindole (DAPI 1 μg/ml in PBS). The cover slips were mounted over glass slides and cells were imaged by a laser scanning confocal microscope (Olympus Fluoview FV1000). The promising candidates identified through P-gp screening and antiproliferative screening were further studied for tubulin polymerization inhibition activity.
# [2] = Thermodynamic equilibrium solubility; type: physicochemical; settings: 25 °C, thermodynamic from solid, 25±1° C.
# Description: The compounds were first dissolved in methanol to prepare stock solutions (100 and 1000 μg/mL). Different concentrations of stock solutions were pipetted into the 96-well plates and the solvent was evaporated to ensure that solid drug was present in the beginning of the experiment. Thereafter, 200 μl of the dissolution medium was added to the wells and 96-well plate was shaken horizontally at 300 rpm (Eppendorf Thermoblock Adapter, North America) for 4 h at room temperature (25±1° C.). The plates were kept overnight for equilibration of drug in medium. Later, the plates were centrifuged at 3000 rpm for 15 min (Jouan centrifuge BR4i). Supernatant (50 μl) was pipetted into UV 96-well plates (Corning® 96 Well Clear Flat Bottom UV-Transparent Microplate) for analyses with plate reader (SpectraMax Plus384) at λmax of 350 nm. The analyses were performed in triplicate for each compound. The solubility curve of concentration (μg/mL) vs absorbance was plotted to find out saturation point and the corresponding concentration was noted.
# HCT-116 = experiment: Antiproliferative activity, MTT assay, HCT-116; type: cell-based, Human
# Description: (§1) Human colon cancer cell lines HCT-116 (NCI, passage no. 5) and Colo-205 116 (NCI, passage no. 3) were procured from National Cancer Institute, USA. HCT-116 and Colo-205 cells were grown in McCoy's 5A and RPMI growth medium respectively containing 10% FCS, 100 U penicillin and […] per mL medium. Cells were grown in CO2 incubator (Thermocon Electron Corporation, Houston, Tex.) at 37° C. with 95% humidity and 5% CO2 gas environment. Cells treated with tested materials were dissolved in DMSO while the untreated control cultures received only the vehicle (DMSO<0.2%). Cells were seeded in 96 well plates and exposed to tested compounds at various concentrations for 48 h time interval. MTT dye (2.5 mg/ml in PBS) was added 4 hrs priors to experiment termination. The plates were then centrifuged at 1500 rpm for 15 min and the supernatant was discarded, and MTT formazan crystals were dissolved in 150 μl of DMSO. The OD measured at 570 nm with reference wavelength of 620 nm.
# (§2) The percentages of cell viability and growth inhibition were calculated using formulas: […]
# Colo-205 = experiment: Antiproliferative activity, MTT assay, Colo-205; type: cell-based; settings: Homo sapiens, 48 h
# Description: as §1, §2
# [3] = day 13, i/p day 1-9, 1 0.75 mg/kg, 1g 1 mg/kg, 5-fluorouracil 22 mg/kg
# [4] = i/p day 1-9, 1 0.75 mg/kg, 1g 1 mg/kg, 5-fluorouracil 22 mg/kg
# [5] = aqueous buffer, phosphate buffer saline, read-out: Solubility, PBS
# [6] = fassgf or other biorelevant, simulated intestinal fluid, read-out: Solubility, SIF
# [7] = simulated gastric fluid, read-out: Solubility, SGF
# [8] = water, read-out: Solubility, Water
structure (smiles),measurement,setting,value
O=c1[nH]cc(F)c(=O)[nH]1 [5-Fluorouracil],Day 13 Avg. tumor weights,Ehrlich solid tumor; [3],668.2 mg
same,% Tumor Growth Inhibition,Ehrlich solid tumor; [4],54.78%
same,Mortality,Ehrlich solid tumor; [4],0/7
"COc1cc2c(c(OC)c1OC)-c1ccc(OC)c(=O)cc1[C@@H](NC(C)=O)CC2 [Compound 1, Colchicine]",% intracellular accumulation of Rh123 in LS180 cells,P-gp; control = 100%,62%
same,EC50,P-gp,14.4 nM
same,disruption of microtubule assembly,[1],remarkable disruption and loss of microtubules
same,solubility,[2]; [5],800 µg/mL
same,solubility,[2]; [6],800 µg/mL
same,solubility,[2]; [7],200 µg/mL
same,solubility,[2]; [8],> 1500 µg/mL
same,"mortality, animals in the group of 7 animals","Ehrlich solid tumor; colchicine 0.75 mg/kg, i/p",2 animals
same,"mortality, animals in the group of 7 animals","Ehrlich solid tumor; colchicine 1 mg/kg, i/p, text and footnote",5 animals
same,Avg. body weights (g) of animal on days 1,"Ehrlich solid tumor; day 1, i/p day 1-9, 1 0.75 mg/kg, 1g 1 mg/kg, 5-fluorouracil 22 mg/kg",22.28 g
same,Avg. body weights (g) of animal on days 5,"Ehrlich solid tumor; day 5, i/p day 1-9, 1 0.75 mg/kg, 1g 1 mg/kg, 5-fluorouracil 22 mg/kg",21.42 g
same,Avg. body weights (g) of animal on days 9,"Ehrlich solid tumor; day 9, i/p day 1-9, 1 0.75 mg/kg, 1g 1 mg/kg, 5-fluorouracil 22 mg/kg",20.2 g
same,Day 13 Avg. body weights,Ehrlich solid tumor; [3],19.25 g
same,Day 13 Avg. tumor weights,Ehrlich solid tumor; [3],705.0 mg
same,% Tumor Growth Inhibition,Ehrlich solid tumor; [4],52.29%
same,Mortality,"Ehrlich solid tumor; colchicine 1 mg/kg, i/p",5/7
same,Mortality,Ehrlich solid tumor; [4],2/7
"COc1cc2c(c(OC)c1OC)-c1ccc(N3CCNCC3)c(=O)cc1[C@@H](NC(C)=O)CC2 [Compound 1a, N-[(7S)-1,2,3-Trimethoxy-9-oxo-10-(piperazin-1-yl)-5,6,7,9-tetrahydrobenzo[a]heptalen-7-yl]acetamide]",% intracellular accumulation of Rh123 in LS180 cells,P-gp; control = 100%,90%
same,IC50,"HCT-116; Homo sapiens, HCT-116, 48 h",> 10000 nM
same,IC50,Colo-205,8000 nM
same,melting point,,158 to 161 °C
"COc1cc2c(c(OC)c1OC)-c1ccc(N3CCC(N)CC3)c(=O)cc1[C@@H](NC(C)=O)CC2 [Compound 1b, N-[(7S)-1,2,3-Trimethoxy-9-oxo-10-(4-amino-piperidin-1-yl)-5,6,7,9-tetrahydrobenzo[a]heptalen-7-yl]acetamide]",% intracellular accumulation of Rh123 in LS180 cells,P-gp; control = 100%,90%
same,IC50,"HCT-116; Homo sapiens, HCT-116, 48 h",10000 nM
same,IC50,Colo-205,5000 nM
"COc1cc2c(c(OC)c1OC)-c1ccc(N3CCN(C(=O)OC(C)(C)C)CC3)c(=O)cc1C(NC(C)=O)CC2 [Compound 1c, N-[(7S)-1,2,3-Trimethoxy-9-oxo-10-(N-boc-piperazin-1-yl)-5,6,7,9-tetrahydrobenzo[a]heptalen-7-yl]acetamide]",IC50,"HCT-116; Homo sapiens, HCT-116, 48 h",4000 nM
same,IC50,Colo-205,3000 nM
"COc1cc2c(c(OC)c1OC)-c1ccc(N3CCC(c4ccccc4)CC3)c(=O)cc1C(NC(C)=O)CC2 [Compound 1d, N-[(7S)-1,2,3-Timethoxy-9-oxo-10-(4-phenyl-piperidin-1-yl)-5,6,7,9-tetrahydrobenzo[a]heptalen-7-yl]acetamide]",% intracellular accumulation of Rh123 in LS180 cells,P-gp; control = 100%,90%
same,EC50,P-gp,29.6 nM
same,IC50,HCT-116; 48 h,1000 nM
same,IC50,"HCT-116; Homo sapiens, HCT-116, 48 h",≤ 1000 nM
same,IC50,Colo-205,800 nM
same,solubility,[2]; [5],80 µg/mL
same,solubility,[2]; [6],20 µg/mL
same,solubility,[2]; [7],> 1500 µg/mL
same,solubility,[2]; [8],80 µg/mL
"COc1cc2c(c(OC)c1OC)-c1ccc(N3CCC[C@@H]3CO)c(=O)cc1C(NC(C)=O)CC2 (stereo partly drawn) [Compound 1e, N-[(7S)-1,2,3-Trimethoxy-9-oxo-10-(L-prolinol-1-yl)-5,6,7,9-tetrahydrobenzo[a]heptalen-7-yl]acetamide]",IC50,"HCT-116; Homo sapiens, HCT-116, 48 h",10000 nM
same,IC50,Colo-205,8000 nM
"COc1cc2c(c(OC)c1OC)-c1ccc(N3CCc4c([nH]c5ccccc45)C3)c(=O)cc1[C@@H](NC(C)=O)CC2 [Compound 1f, N-[(7S)-1,2,3-Trimethoxy-9-oxo-10-(2,3,4,9-tetrahydro-1H-pyrido[3,4-b]indole-2-yl)-5,6,7,9-tetrahydrobenzo[a]heptalen-7-yl]acetamide]",% intracellular accumulation of Rh123 in LS180 cells,P-gp; control = 100%,90%
same,IC50,"HCT-116; Homo sapiens, HCT-116, 48 h",3000 nM
same,IC50,Colo-205,800 nM
"CO[C@H]1/C=C/O[C@@]2(C)Oc3c(C)c(O)c4c(O)c(c(/C=N/N5CCN(C)CC5)c(O)c4c3C2=O)NC(=O)/C(C)=C\C=C\[C@H](C)[C@H](O)[C@@H](C)[C@@H](O)[C@@H](C)[C@H](OC(C)=O)[C@@H]1C [rifampicin, reference compound]",% intracellular accumulation of Rh123,"P-gp; rifampicin 10 μM, positive control, control = 100%",69%
